We go through 9 molecules from ChEMBL document CHEMBL1201862, “PubChem BioAssay data set” (2004).

The structures appear in SMILES notation. Active and inactive are the calls of the source. Bounds are passed on as bounds.

Assay [1] concerns the target Fructose-bisphosphate aldolase (Mycobacterium tuberculosis, UniProt P9WQA3). In words: Fluorescence-based biochemical high throughput dose response assay for inhibitors of the fructose-bisphosphate aldolase (FBA) of M. tuberculosis. The assay is classed as functional.
Assay [2] can be described thus: growth suppression of PTEN-null colon cells, dose response, cell-based, HCT116 PTEN knockout (AID 1047).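 Also: HCT116 colon tumor cells with PTEN knocked out; cells exposed to compound for 60 hours before readout; potency for loss of cell viability measured by luminescence.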 The assay is classed as functional.
The nature of assay [3]: growth suppression of beta-catenin-knockout colon cells, dose response, cell-based, HCT116, human colon tumor (AID 1045).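 Also: HCT116 colon tumor cells with beta catenin knocked out; cells exposed to compound for 60 hours.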 Type of assay: functional.
Assay [4] can be described thus: cytotoxicity toward NIH3T3 fibroblasts, dose response, counter-screen, cell-based, ATP luminescence, mouse fibroblasts (AID 2010).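 Also: cells exposed to compound for about 90 hours before reading.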 Type of assay: functional. A general note: A counterscreen serves to expose hits that act by an unwanted route or on another target.
Assay [5] in a line: inhibitors of intracellular T. cruzi replication, confirmation, NIH3T3 host cells, beta-gal luminescence (AID 2044).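 Also: intracellular parasites grown in NIH/3T3 mouse fibroblasts as host cells; luminescent beta-galactosidase reporter signal from transgenic T. cruzi replicating inside host cells; inhibitors lower the luminescence signal.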 The assay is classed as functional, cell-based.
Assay [6] addresses Matrix metalloproteinase-14 (Homo sapiens, UniProt P50281). In words: Dose Response confirmation of uHTS hits for a small molecule inhibitors of MT1-MMP activation in a fluorescence assay set 1. The assay is classed as functional.
Assay [7] concerns the target 5-hydroxytryptamine receptor 2A (Mus musculus, UniProt P35363). Type of assay: functional, cell-based.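 Also: CHO-K1 cells with tagged receptor and beta-arrestin; agonist potency measured as compound-induced activation of the receptor.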
The target in assay [8] is T1, Rac GTPase-activating protein 1 (Homo sapiens, UniProt Q9H0H5).
T1 sequence (Q9H0H5 whole entry): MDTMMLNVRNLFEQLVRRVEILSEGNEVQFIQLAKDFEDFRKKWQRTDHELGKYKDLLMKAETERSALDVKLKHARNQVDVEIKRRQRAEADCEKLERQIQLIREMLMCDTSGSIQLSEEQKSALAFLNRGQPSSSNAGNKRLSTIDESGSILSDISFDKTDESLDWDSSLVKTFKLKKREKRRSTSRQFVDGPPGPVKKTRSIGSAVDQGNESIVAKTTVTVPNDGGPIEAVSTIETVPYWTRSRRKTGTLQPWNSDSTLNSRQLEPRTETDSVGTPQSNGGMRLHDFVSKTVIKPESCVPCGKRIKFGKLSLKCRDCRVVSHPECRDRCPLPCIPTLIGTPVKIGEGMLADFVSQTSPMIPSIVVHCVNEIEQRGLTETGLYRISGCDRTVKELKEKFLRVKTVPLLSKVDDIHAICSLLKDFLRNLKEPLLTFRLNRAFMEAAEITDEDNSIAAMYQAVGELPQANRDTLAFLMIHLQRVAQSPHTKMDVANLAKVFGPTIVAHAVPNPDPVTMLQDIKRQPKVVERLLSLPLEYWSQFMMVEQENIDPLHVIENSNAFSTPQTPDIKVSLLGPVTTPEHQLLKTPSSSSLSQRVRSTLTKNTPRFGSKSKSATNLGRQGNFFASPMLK
Kind of assay: MgcRacGAP GTPase-activating activity inhibitors, confirmation, biochemical, ADP Hunter fluorescence, primary and confirmatory (AID 624330). The assay is classed as functional.

The target of the next assay is Mu-type opioid receptor (Homo sapiens, UniProt P35372). Type of assay: functional, cell-based.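 Also: U2OS cells with beta-arrestin recruitment to OPRM1 by beta-gal complementation.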
Mu-type opioid receptor, sequence (P35372 whole entry, the tested form may be a part): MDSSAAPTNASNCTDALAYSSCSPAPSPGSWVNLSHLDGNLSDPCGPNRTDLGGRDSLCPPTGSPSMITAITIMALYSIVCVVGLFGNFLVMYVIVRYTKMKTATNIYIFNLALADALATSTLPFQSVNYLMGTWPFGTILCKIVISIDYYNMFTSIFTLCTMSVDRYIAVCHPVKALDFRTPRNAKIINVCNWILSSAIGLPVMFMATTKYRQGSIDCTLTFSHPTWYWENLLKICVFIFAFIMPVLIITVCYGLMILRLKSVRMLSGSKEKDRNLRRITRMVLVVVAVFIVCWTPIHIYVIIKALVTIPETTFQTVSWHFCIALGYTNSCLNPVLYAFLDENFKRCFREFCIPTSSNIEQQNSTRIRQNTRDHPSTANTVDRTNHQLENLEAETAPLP
Assay [9] is described as follows: inhibitors of HIV Env-driven cell fusion, dose response, cherry-pick (AID 652057). Type of assay: functional, cell-based.
The nature of assay [10]: CEM21 lymphoblast cell cytotoxicity, dose response, cytotoxicity control for viral fusion inhibitor project, CellTiter-Glo luminescence, cherry-picked (AID 652042).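 Also: potency for signal decrease meaning cytotoxicity.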 Type of assay: functional, cell-based.
Assay [11] is described as follows: inhibitors of clade B AD8 Env fusion, dose response, cell-based, cherry-pick (AID 652062).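 Also: luciferase signal from cell-cell fusion driven by HIV-1 clade B AD8 Env; potency is for inhibitors of fusion seen as a drop in luminescence.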 Type of assay: functional.
Assay [12] can be described thus: off-target signal loss in HeLa-CEM21 co-culture – HeLa F-luc CTL cells, cherry-picked, counter-screen for HIV-1 Env fusion inhibitor project, dose response (AID 652040).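 Also: potency for signal decrease marking cytotoxic or nonspecific inhibition.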 Type of assay: functional, cell-based.
Assay [13] addresses T2, Sentrin-specific protease 1 (Homo sapiens, UniProt Q9P0U3).
T2 sequence (Q9P0U3 whole entry): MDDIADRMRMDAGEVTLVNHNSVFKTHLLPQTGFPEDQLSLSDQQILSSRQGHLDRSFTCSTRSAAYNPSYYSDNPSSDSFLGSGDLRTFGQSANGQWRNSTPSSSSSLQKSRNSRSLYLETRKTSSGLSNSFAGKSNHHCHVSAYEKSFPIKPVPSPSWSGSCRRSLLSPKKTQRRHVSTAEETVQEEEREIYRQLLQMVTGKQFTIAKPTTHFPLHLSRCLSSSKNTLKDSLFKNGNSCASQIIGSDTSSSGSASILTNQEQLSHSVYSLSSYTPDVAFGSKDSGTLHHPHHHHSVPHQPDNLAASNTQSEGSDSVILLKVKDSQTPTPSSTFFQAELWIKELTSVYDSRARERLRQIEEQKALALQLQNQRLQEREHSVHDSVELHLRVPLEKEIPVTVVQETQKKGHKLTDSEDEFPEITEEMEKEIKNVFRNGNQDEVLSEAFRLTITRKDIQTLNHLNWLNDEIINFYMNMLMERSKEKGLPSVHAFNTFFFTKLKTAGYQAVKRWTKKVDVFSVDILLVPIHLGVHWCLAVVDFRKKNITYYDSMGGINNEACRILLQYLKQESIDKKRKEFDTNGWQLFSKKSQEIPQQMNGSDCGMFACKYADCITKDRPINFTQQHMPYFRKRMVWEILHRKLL
Kind of assay: potency of human SENP1 inhibitors, dose response, biochemical, kinetic FRET (AID 651697). Type of assay: functional. Conditions: read-out: IC50_Mean.

Assay [14] concerns the target T2, Sentrin-specific protease 1. In words: Dose response confirmation of small molecule inhibitors of the catalytic domain of the SUMO protease, SENP1 in a FRET assay. Type of assay: functional. Conditions: read-out: IC50_Mean.
In assay [15] the target is SWI/SNF-related matrix-associated actin-dependent regulator of chromatin subfamily A member 2 (Homo sapiens, UniProt P51531). Kind of assay: Luminescence-based cell-based high throughput dose response assay to identify activators of the function of SWI/SNF related, matrix associated, actin dependent regulator of chromatin, subfamily a, member 2 (SMARCA2, BRM). The assay is classed as functional.
SWI/SNF-related matrix-associated actin-dependent regulator of chromatin subfamily A member 2, sequence (P51531 whole entry): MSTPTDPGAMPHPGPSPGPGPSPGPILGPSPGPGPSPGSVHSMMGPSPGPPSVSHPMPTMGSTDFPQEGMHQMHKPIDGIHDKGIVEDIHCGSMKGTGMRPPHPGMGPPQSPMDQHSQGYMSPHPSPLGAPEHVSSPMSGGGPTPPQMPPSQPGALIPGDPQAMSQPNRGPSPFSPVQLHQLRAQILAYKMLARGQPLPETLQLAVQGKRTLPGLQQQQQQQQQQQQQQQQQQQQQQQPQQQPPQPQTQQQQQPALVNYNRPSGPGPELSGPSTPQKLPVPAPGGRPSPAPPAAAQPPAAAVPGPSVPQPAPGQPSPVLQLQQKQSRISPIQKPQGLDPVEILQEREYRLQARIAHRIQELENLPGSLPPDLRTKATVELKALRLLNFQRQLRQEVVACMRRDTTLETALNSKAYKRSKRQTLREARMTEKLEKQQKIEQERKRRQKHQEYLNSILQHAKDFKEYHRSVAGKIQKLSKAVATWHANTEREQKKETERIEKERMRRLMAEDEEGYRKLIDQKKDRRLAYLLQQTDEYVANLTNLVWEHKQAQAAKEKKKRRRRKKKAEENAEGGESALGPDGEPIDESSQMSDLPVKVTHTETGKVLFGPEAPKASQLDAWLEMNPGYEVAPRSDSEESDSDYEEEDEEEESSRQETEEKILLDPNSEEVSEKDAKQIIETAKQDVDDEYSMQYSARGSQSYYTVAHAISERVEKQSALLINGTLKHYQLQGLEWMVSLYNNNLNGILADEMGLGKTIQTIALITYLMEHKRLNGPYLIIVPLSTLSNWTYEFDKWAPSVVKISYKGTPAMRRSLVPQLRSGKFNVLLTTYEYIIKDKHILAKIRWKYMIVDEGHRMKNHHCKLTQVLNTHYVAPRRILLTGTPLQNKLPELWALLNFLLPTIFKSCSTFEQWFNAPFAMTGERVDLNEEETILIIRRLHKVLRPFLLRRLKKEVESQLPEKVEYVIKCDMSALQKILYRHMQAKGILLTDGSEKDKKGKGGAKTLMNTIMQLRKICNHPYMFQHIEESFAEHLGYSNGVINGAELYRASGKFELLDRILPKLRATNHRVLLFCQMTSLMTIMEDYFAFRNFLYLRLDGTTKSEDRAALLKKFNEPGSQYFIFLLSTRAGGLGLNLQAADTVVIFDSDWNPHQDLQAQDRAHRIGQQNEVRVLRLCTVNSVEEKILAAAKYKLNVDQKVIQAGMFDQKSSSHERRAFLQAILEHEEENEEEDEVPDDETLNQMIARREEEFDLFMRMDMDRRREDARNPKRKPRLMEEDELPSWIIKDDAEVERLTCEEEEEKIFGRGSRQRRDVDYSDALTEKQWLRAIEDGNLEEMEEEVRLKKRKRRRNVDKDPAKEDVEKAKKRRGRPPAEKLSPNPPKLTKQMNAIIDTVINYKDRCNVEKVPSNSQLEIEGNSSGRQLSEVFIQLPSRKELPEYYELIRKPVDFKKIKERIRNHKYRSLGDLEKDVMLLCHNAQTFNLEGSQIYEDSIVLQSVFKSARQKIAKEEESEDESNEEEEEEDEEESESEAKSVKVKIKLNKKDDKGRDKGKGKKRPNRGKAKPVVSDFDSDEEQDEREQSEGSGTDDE

A short description of assay [16]: Counterscreen for activators of the function of SWI/SNF related, matrix associated, actin dependent regulator of chromatin, subfamily a, member 2 (SMARCA2, BRM): Luminescence-based cell-based high throughput dose response assay to identify non-selective compounds using the VP16 reporter assay. The assay is classed as functional.
A further assay concerns INS1. In words: beta cell apoptosis inhibitors, cytokine rescue, dose response, luminescence, retest (AID 449756).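 Also: cell death triggered by IL-1 beta plus TNF-alpha plus IFN-gamma mixture; protective hits raise ATP signal compared with cytokine alone wells.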 The assay is classed as functional, cell-based. Conditions: Rattus norvegicus.
Assay [17] is described as follows: ZM109 Env clade C HIV-1 fusion inhibitors, dose response, HeLa effector, CEM target cells, luciferase, cherry-pick (AID 652058). Type of assay: functional, cell-based.
Assay [18] concerns Vero. In words: Vero cell cytotoxicity, cytotoxicity control for flavivirus capping enzyme inhibitors (AID 588742). The assay is classed as functional. Conditions: Chlorocebus sabaeus.
Assay [19] concerns the target Induced myeloid leukemia cell differentiation protein Mcl-1 (Homo sapiens, UniProt Q07820). The assay is classed as functional.
The target of assay [20] is T3, Histone-lysine N-methyltransferase NSD2 (Homo sapiens, UniProt O96028).
T3 sequence (O96028 whole entry): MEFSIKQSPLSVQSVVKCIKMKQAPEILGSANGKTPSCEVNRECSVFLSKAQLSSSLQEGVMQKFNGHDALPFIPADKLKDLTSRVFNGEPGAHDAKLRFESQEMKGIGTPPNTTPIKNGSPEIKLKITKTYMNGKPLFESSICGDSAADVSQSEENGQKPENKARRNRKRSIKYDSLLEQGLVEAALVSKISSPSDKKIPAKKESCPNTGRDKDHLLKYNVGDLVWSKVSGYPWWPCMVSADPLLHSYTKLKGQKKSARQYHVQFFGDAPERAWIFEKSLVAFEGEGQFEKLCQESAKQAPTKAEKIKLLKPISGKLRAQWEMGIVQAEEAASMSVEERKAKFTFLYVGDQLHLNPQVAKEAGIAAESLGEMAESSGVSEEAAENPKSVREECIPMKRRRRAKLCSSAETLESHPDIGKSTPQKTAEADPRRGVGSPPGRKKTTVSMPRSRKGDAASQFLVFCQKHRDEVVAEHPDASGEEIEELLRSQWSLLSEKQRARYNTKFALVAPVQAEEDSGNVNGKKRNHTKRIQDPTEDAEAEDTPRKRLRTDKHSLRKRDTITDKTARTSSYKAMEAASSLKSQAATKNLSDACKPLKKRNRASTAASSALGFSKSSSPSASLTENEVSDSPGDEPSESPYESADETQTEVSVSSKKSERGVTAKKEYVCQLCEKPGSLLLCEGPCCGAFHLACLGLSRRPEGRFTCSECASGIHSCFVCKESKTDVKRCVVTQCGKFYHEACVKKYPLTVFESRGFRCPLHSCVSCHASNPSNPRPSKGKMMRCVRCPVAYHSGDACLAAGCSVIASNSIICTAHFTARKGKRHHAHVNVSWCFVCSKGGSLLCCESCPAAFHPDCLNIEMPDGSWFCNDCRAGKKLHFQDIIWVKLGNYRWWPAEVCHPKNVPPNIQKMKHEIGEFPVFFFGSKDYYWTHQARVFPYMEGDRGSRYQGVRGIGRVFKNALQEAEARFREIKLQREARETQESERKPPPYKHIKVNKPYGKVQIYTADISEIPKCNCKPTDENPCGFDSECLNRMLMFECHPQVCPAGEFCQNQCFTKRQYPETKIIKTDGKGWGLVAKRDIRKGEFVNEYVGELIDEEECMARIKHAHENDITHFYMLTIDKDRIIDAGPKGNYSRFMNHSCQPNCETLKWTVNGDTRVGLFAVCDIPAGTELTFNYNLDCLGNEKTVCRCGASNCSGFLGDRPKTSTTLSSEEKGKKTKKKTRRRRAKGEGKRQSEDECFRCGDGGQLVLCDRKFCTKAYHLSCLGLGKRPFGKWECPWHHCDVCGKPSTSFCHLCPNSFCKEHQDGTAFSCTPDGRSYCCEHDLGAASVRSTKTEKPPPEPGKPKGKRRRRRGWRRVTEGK
Type of assay: biochemical.

In the next assay the target is Genome polyprotein (dengue virus type 2, UniProt P29990). Kind of assay: Dengue-2 NS5 methyltransferase inhibitors, primary screen, biochemical, confirmation dose response (AID 588689). The assay is classed as functional.
Genome polyprotein, sequence (P29990 2492-3391 limits assumed): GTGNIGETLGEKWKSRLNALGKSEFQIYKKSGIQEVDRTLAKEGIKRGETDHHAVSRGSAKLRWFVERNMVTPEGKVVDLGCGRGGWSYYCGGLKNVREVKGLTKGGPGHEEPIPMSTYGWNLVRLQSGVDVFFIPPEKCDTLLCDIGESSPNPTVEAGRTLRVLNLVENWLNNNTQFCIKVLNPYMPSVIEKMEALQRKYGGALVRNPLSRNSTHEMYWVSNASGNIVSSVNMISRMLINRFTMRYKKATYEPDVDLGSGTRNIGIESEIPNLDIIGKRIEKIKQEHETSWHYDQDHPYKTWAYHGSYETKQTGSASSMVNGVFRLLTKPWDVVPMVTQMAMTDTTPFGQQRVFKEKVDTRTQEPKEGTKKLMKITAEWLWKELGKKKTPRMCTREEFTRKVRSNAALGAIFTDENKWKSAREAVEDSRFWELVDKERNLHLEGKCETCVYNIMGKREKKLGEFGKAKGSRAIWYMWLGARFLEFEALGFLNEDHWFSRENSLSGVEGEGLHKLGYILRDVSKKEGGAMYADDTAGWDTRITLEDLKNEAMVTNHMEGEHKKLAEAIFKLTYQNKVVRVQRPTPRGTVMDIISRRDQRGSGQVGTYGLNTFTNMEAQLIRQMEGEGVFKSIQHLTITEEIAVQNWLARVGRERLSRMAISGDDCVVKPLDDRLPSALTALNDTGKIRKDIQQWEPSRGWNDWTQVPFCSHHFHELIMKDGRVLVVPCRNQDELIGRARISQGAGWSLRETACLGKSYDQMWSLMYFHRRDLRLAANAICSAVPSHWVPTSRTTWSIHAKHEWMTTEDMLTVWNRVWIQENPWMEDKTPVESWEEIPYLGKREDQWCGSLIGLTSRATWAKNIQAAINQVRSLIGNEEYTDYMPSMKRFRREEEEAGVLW
The target in assay [21] is T4, Mannose-6-phosphate isomerase (Homo sapiens, UniProt P34949).
T4 sequence (P34949 whole entry): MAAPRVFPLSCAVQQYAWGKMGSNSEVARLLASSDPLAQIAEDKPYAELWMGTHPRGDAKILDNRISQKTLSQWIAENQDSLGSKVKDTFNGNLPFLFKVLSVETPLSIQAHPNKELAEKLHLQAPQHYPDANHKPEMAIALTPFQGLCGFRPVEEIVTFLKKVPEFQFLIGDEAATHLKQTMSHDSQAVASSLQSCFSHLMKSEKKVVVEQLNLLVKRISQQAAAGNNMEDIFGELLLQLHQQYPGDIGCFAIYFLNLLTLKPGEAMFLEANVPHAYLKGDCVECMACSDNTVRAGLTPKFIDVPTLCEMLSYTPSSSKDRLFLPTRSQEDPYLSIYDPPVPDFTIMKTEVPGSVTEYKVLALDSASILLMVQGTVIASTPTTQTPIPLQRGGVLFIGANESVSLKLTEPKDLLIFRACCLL
In words: human PMI inhibitors, high substrate, primary screen, biochemical, fluorescence intensity, high mannose 6-phosphate (AID 1220).

In assay [22] the target is Eukaryotic translation initiation factor 4E (Mus musculus, UniProt P63073). Kind of assay: eIF4E–eIF4G protein interaction inhibitors, dose response, biochemical, TR-FRET (AID 855).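 Also: potency for disrupting eIF4E binding to eIF4GI seen as loss of FRET.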 Type of assay: functional.
Eukaryotic translation initiation factor 4E, sequence (P63073 whole entry): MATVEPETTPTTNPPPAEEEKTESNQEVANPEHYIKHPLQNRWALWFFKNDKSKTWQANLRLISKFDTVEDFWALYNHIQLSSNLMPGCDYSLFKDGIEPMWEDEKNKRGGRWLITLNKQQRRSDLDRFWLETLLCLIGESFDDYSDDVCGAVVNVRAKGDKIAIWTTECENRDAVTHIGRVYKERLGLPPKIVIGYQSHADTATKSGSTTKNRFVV
The subject of assay [23] is Vero. Kind of assay: cells. The assay is classed as functional. Conditions: Chlorocebus sabaeus.

5-hydroxytryptamine receptor 2A, sequence (P35363 whole entry): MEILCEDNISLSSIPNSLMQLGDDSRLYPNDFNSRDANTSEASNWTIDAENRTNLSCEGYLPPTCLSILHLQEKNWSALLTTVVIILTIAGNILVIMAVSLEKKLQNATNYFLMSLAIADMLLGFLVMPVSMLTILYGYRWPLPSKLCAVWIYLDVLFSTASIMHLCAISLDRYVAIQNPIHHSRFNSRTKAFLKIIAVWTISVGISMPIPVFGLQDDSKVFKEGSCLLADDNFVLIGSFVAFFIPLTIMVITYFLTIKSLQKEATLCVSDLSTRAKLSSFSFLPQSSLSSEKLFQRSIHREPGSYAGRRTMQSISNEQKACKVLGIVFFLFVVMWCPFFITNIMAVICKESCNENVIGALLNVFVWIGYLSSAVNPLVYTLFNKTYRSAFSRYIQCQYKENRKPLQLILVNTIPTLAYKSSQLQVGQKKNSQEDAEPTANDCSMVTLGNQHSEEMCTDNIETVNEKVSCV
Induced myeloid leukemia cell differentiation protein Mcl-1, sequence (Q07820 whole entry): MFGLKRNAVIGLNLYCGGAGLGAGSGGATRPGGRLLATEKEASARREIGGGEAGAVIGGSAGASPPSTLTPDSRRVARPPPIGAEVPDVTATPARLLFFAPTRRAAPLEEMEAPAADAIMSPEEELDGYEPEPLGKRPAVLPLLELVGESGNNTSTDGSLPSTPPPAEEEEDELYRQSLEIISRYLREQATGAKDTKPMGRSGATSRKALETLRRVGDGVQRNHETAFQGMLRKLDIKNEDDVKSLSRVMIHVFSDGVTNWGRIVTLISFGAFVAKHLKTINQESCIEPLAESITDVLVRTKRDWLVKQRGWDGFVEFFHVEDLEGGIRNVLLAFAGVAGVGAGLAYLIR
Fructose-bisphosphate aldolase, sequence (P9WQA3 whole entry): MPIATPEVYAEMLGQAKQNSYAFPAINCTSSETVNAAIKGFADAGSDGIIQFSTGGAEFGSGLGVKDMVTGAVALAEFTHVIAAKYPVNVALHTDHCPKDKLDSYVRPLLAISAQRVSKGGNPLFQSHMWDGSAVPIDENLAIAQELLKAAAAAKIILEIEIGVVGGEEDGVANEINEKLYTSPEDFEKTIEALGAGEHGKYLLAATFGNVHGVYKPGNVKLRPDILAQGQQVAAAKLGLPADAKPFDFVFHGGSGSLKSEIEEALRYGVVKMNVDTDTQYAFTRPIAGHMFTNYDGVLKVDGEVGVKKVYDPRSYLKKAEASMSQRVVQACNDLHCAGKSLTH

With `Cc1cc(C)c2oc(-c3cccc(N)c3)nc2c1`, the IC50 in assay [1] is 0.518 µM (active).

As for `Nc1nc(-c2ccc(Cl)cc2)c(N=Nc2ccc(S(=O)(=O)N3CCOCC3)cc2)s1`, the EC50 is 16.5 µM (active) in [2], 17.4 µM (active) in [3], > 60 µM (inconclusive) in [4] and 1.96 µM (active) in assay [5]. Further, the IC50 in assay [6] was 27.7 µM (inactive).

Take `COc1ccc(S(=O)(=O)N2CCC(N3CCN(Cc4ccccc4)CC3)CC2)cc1`: the EC50 in assay [7] was 76.1 µM (inactive); at Mu-type opioid receptor, 92.4 µM (inactive). Also, the IC50 in assay [8] is 98.7 µM (active).

In the case of `COc1ccc(COC(=O)C2=C(C)NC(=O)NC2c2ccc(OC)cc2)cc1` (centres undefined), the AC50 was 21.6 µM (active) in assay [9], 60.3 µM (active) in [10], 33.4 µM (active) in assay [11] and 47.3 µM (active) in assay [12].

`CC(=O)c1ccccc1Oc1nc(CN2CCOCC2)nc2scc(-c3cccs3)c12`: the IC50 was 26.6 µM (inactive) in assay [13] and 69.6 µM (inactive) in assay [14].

As to `O=C(/C=C/c1ccc(-c2ccccc2)o1)c1ccccc1`, the EC50 in assay [15] and in assay [16] was > 91.2 µM (inactive) in each case.

As for `S=C(NCCCN1CCOCC1)N1CCN(c2nc(-c3ccc(Cl)cc3)cs2)CC1`, the concentration at half-maximal activity (AC50) was 31 µM (active) in [9]; 11.2 µM (active) in the assay with INS1; 19.9 µM (active) in assay [10]; 0.888 µM (active) in assay [17]; 7.13 µM (active) in assay [11]; 25.9 µM (active) in assay [12].

With `COCC/N=c1\scc(-c2ccco2)n1/N=C/c1ccc(O)c(O)c1O`, in the assay with Vero [18], the CC50 is 38.6 µM (active). In addition, the IC50 in assay [19] was 1.6 µM (active); on Genome polyprotein, > 100 µM (active); in [21], 32 µM (active); in [22], 36 µM (inactive). Also, the EC50 was 11.6 µM (inactive) in [7] and 92.5 µM (inactive) at Mu-type opioid receptor. Also, the AC50 in assay [20] was 1.16 µM (active).

As for `O=C(/C=C/c1ccc(O)cc1)c1ccc(O)cc1O` [ISOLIQUIRITIGENIN], the EC50 in assay [15] and in assay [16] was > 91.1 µM (inactive) each time. Besides, the CC50 with Vero [23] is > 25 µM (active).

Usually EC50 stands for the concentration that produces a half-maximal response. One may read the AC50 as the concentration giving half of the maximal activity seen. A word on the CC50: it is the concentration giving 50% cytotoxicity.
